Laboratory results taken from ChEMBL document CHEMBL1141005, “Modulation of PPAR receptor subtype selectivity of the ligands: aliphatic chain vs aromatic ring as a spacer between pharmacophore and the lipophilic moiety” (Bioorg Med Chem Lett, 2008).
Active and inactive are the calls of the source. The calls are words filed in the database; no cut-off is given here.

Assays:
[1] = biological target: T1, Peroxisome proliferator-activated receptor alpha (Homo sapiens, UniProt Q07869); assay: Agonist activity at human PPARalpha transactivation expressed in human HePG2 cells; type: functional, cell-based
T1 sequence (Q07869 whole entry): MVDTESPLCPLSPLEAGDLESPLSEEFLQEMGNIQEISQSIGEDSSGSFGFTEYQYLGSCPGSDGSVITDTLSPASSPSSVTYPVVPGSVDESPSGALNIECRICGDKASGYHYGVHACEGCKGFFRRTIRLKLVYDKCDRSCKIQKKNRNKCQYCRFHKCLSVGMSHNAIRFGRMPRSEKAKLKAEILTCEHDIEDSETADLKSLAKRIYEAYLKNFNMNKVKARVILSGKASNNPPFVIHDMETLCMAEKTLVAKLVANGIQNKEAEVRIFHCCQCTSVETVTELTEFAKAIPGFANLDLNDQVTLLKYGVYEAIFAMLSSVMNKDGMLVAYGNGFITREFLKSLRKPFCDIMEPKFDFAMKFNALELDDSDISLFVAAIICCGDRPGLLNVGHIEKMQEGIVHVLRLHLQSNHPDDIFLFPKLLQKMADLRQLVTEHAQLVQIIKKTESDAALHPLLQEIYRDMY

[2] = biological target: T2, Peroxisome proliferator-activated receptor delta (Homo sapiens) (UniProt Q03181); assay: Agonist activity at human PPARdelta transactivation expressed in human HePG2 cells up to 1 uM; type: functional, cell-based
T2 sequence (whole entry): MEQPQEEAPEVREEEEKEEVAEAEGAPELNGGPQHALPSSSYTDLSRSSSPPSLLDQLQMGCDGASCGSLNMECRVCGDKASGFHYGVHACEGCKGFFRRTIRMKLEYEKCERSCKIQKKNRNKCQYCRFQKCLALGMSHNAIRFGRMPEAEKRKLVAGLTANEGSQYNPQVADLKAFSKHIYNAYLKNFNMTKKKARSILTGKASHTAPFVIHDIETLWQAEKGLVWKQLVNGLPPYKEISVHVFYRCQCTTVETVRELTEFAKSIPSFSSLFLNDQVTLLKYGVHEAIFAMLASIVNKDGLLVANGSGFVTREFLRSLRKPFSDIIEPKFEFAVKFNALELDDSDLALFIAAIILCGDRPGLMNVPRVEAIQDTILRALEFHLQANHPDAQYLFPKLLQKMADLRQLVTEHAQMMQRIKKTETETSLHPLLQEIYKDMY

HpG2 = assay: Selectivity ratio of EC50 for human PPARgamma receptor to human PPARalpha receptor expressed in human HpG2 cells; type: cell-based
[3] = biological target: T3, Peroxisome proliferator-activated receptor gamma (Homo sapiens, UniProt P37231); assay: Agonist activity at human PPARgamma transactivation expressed in human HePG2 cells
T3 sequence (P37231 whole entry): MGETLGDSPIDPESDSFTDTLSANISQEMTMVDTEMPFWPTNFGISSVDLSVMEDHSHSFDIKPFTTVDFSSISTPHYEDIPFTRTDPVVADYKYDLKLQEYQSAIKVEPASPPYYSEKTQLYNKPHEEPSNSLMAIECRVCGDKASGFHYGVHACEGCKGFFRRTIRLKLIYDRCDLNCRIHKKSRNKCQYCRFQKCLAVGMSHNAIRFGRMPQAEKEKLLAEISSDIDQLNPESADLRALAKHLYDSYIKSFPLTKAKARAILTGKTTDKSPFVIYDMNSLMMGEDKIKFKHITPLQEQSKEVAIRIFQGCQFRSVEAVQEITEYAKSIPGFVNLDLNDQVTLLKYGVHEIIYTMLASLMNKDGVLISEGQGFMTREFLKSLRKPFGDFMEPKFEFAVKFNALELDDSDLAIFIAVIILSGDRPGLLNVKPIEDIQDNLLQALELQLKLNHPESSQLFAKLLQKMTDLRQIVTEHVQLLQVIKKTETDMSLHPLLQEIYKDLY

[4] = biological target: T4, Peroxisome proliferator-activated receptor alpha (Homo sapiens) (UniProt Q07869); assay: Agonist activity at human PPARalpha transactivation expressed in human HePG2 cells up to1 uM; type: functional, cell-based
T4 sequence (whole entry): T1 sequence (Q07869 whole entry)

[5] = biological target: T5, Peroxisome proliferator-activated receptor gamma (Homo sapiens) (UniProt P37231); assay: Agonist activity at human PPARgamma transactivation expressed in human HePG2 cells up to1 uM; type: functional, cell-based
T5 sequence (whole entry): T3 sequence (P37231 whole entry)

SMILES	EC50 [1] [nM]	Activity [2]	Ratio EC50 (HpG2)	EC50 [3] [nM]	Activity [4]	Activity [5]
Cc1ccc(-c2nc(COc3ccc(C[C@H]4CO[C@@](C)(C(=O)O)OC4)cc3)c(C)o2)cc1	72	inactive	0.2	–	–	–
COc1ccc(OC(=O)N(CCCCCCc2nc(-c3ccc(C)cc3)oc2C)CC(=O)O)cc1	34	inactive	13	450	–	–
COc1ccc(OC(=O)N(CC(=O)O)Cc2ccc(OCCc3nc(-c4ccccc4)oc3C)cc2)cc1 [MURAGLITAZAR]	150	inactive	–	–	–	–
Cc1ccc(-c2nc(CCCCCO/N=C(/CCC(=O)O)c3ccccc3)c(C)o2)cc1	2	inactive	15	31	–	–
Cc1ccc(-c2nc(CCCC[C@H]3CO[C@@](C)(C(=O)O)OC3)c(C)o2)cc1	–	inactive	–	6850	–	–
Cc1oc(-c2ccccc2)nc1COc1ccc(CO/N=C(\CCC(=O)O)c2ccccc2)cc1 [IMIGLITAZAR]	8	inactive	–	–	–	–
COc1ccc(OC(=O)N(CCCCCc2coc(-c3ccc(C)cc3)n2)CC(=O)O)cc1	44	inactive	12	560	–	–
COc1ccc(OC(=O)N(CCCCc2nc(-c3ccc(C)cc3)oc2C)CC(=O)O)cc1	–	inactive	–	–	inactive	inactive
Cc1ccc(-c2nc(CCCCO/N=C(\CCC(=O)O)c3ccccc3)c(C)o2)cc1	0.0038	inactive	113000	430	–	–
Cc1ccc(-c2nc(CCCCCCO/N=C(/CCC(=O)O)c3ccccc3)c(C)o2)cc1	0.1	inactive	1000	100	–	–
